Reference: article PMC11087268, “A folate inhibitor exploits metabolic differences in Pseudomonas aeruginosa for narrow-spectrum targeting” (Nature Microbiology, 2024)
≈ marks a conversion by molar mass, not a printed value.

Columns and labels:
[1] = system: Enterococcus faecalis ATCC 51575; assay: MIC (WuXi, Mueller–Hinton broth) against E. faecalis; type: cell-based; settings: ATCC51575
Procedure: Bacterial colonies (4–8) of strains of interest were vortexed in saline and adjusted to an OD600 of 0.2. Strains were diluted 1:200 into CAMHB media in 96-well plates. Antibiotics were serially diluted 1:3 in DMSO, and 1 μl of each dilution was added to bacteria. The plates were incubated for 18–20 h at 37 °C before observation.

[2] = system: Staphylococcus aureus USA300; assay: MIC against S. aureus USA300 in LB broth; type: cell-based; settings: USA300, 16 h
Procedure: Overnight cultures were diluted 1:150 in LB broth and added to a 96-well plate. Antibiotics were serially diluted 1:2 and added to columns of the 96-well plate and grown at 37 °C with continuous shaking. Cell growth was measured using optical density at 600 nm (OD600). MIC assays were performed in either BioTek Synergy HT or Tecan InfiniteM200 Pro microplate readers.

[3] = system: PBMC (peripheral blood mononuclear cell); assay: Mammalian cell cytotoxicity, PBMC; type: cell-based, human
Procedure: HK-2 (500 cells per well) (ATCC CRL-2190), HLF (500 cells per well) (Cell Applications 506K-05a), WI-38 (500 cells per well) (ATCC CCL-75) or PBMC (5,000 cells per well) (TPCS PB010C) cells were seeded in white opaque 384-well plates. After 24 h, DMSO or compounds were added in 3-fold dilutions and cells incubated for 72 h. For PBMC, CellTiter-Glo reagent was added in equal volume and incubated for 30 min, after which luminescence was read. For other cell types, CyQUANT detection reagent was added in equal volume and cells incubated for 1 h, after which fluorescence was read with standard green filter set […]. Cell toxicity was evaluated by Pharmaron.

S. aureus USA300 = assay: Growth with or without TMI supplementation and fluorofolin, S. aureus USA300; type: cell-based, Staphylococcus aureus; settings: fluorofolin 2X MIC
Procedure: Where listed, growth media were prepared according manufacturer recommendations: LB broth and LB broth supplemented with 0.3 mM thymine (BD Biosciences 244610, Alfa Aesar A15879), 0.3 mM methionine (Sigma-Aldrich M9625), 0.3 mM inosine (EMD Millipore 4060), cation-adjusted Mueller–Hinton II broth (CAMHB) (BD 212322) or 0.3 mM thymidine (Sigma-Aldrich T1895), Gutnick minimal media (1.0 g l^−1 K2SO4, 13.5 g l^−1 K2HPO4, 4.7 g l^−1 KH2PO4, 0.1 g l^−1 MgSO4·7H2O, 10 mM NH4Cl as a nitrogen source and 0.4% w/v glucose as a carbon source)[65].
Extended Data Fig. 3 TMI supplementation can also rescue other species from fluorofolin DHFR inhibition. […] (f) P. aeruginosa PA14 or E. coli lptd4213 treated with fluorofolin 50 μg/mL in the presence or absence of 0.3 mM thymidine. (g) E. coli lptd4213 treated with fluorofolin 50 μg/mL and SMX (78.1 μg/mL) in the presence or absence of 0.3 mM thymidine or 0.3 mM TMI supplementation, Curves represent average optical at 600 nm (OD600) of 2 biological replicates. Means are shown. Source data

Nc1nc(N)c2c(ccc3c2ccn3Cc2ccnc(F)c2)n1 [fluorofolin]
MIC [1]: 0.01 µg/mL (≈ 0.0324 µM)
MIC [2]: 0.4 µg/mL
IC50 ([3]; Homo sapiens, PBMC, 72 h, CellTiter-Glo, read-out: IC50 Fluorofolin): 39.8 µg/mL (≈ 129 µM)
increase in IC50 compared with IRS-16 ([3]; PBMCs): 9.6 fold
rescue of growth inhibition by TMI supplementation (S. aureus USA300): could also be rescued from fluorofolin growth inhibition by TMI supplementation
